# Active and inactive are the calls of the source.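 The calls were made as follows: active = compounds giving half or more protection of infected cells from virus-caused growth loss, again on retest; inactive = the rest.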
# System: CEM cells HIV-1 protection, formazan growth assay
# Assay: NCI AIDS Antiviral Assay
# Details: for IC50: measured here: growth of uninfected CEM cells
# Outline: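 CEM (human) cells, HIV-1 infected vs uninfected, 5-point dosing, formazan growth read-out. Retest threshold 50% protection.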
SMILES,EC50,IC50,outcome
N=C(N)SCc1cn2ccccc2n1,> 891 µM,50.1 µM,–
O=C1CCC2SC1CCC2=O,> 200 µM,> 200 µM,–
Cc1cc(N(CCC#N)CCC#N)ccc1/C=C1\N=C(c2cc([N+](=O)[O-])ccc2Cl)N(c2cccc(Cl)c2)C1=O,> 12.6 µM,> 12.6 µM,–
S=c1[nH]nc(Cn2c3ccc(Br)cc3c3nc4ccccc4nc32)o1,> 200 µM,49 µM,–
CC(=O)Nc1ccc(Nc2cc(=O)[nH]c(=O)[nH]2)cc1,> 200 µM,> 200 µM,–
CCOC(=O)c1ccc(N(CC(=O)O)S(=O)(=O)c2ccc(C)cc2)s1,> 20 µM,> 20 µM,–
COc1cc(C(c2c(O)c3ccccc3oc2=O)c2c(O)c3ccccc3oc2=O)cc(OC)c1OC,> 200 µM,93.3 µM,–
O=c1[nH][nH]c(=O)c2c1nc(SCc1ccc(Br)cc1)n2Cc1ccccc1,> 214 µM,> 214 µM,–
C1COCCOP2(N3CC3)=NP(N3CC3)(=NP(N3CC3)(N3CC3)=N2)OCCOCCO1 (stereo not given),> 200 µM,21.4 µM,–
CSC(SC)=C(C#N)C(=O)Nc1ccc(Cl)cc1,> 14.8 µM,5.37 µM,–
O=c1[nH]cnc2c1ncn2C1C=CC(CO)CC1 (stereo not given),> 200 µM,> 200 µM,–
COc1ccc(Br)c(N/N=C2\CCCNC2=O)c1,–,–,inactive
Cc1ccccc1OCC1COC(c2ccc(Cl)cc2)O1 (stereo not given),> 200 µM,> 200 µM,–
COc1cc(CC2C(O)C3CCN2CC3)cc(OC)c1OC (stereo not given),–,–,inactive
O=C(O)C1C2c3ccccc3C(c3ccccc32)C1C(=O)O (stereo not given),> 851 µM,> 851 µM,–
COc1cccc2c1C(=O)c1c(O)c3c(c(O)c1C2=O)C[C@@](O)(/C(C)=N/NC(=O)c1ccccc1)C[C@@H]3OC1CC(N)C(O)C(C)O1 (stereo not given in full),> 50.1 µM,0.0158 µM,–
Cc1ccc(Nc2nc(C)c(C(=O)CC(=O)C(=O)Nc3c(C)cccc3C(C)(C)C)s2)cc1,> 200 µM,> 200 µM,–
COc1ccc(-c2oc3ccccc3c(=O)c2O)cc1OC,> 200 µM,138 µM,–
CC1C(=O)CC(c2cccs2)N(N=O)C1c1cccs1 (stereo not given),> 117 µM,77.6 µM,–
c1ccc2c(c1)NC(SSC1Nc3ccccc3S1)S2 (stereo not given),> 200 µM,> 200 µM,–
O=S(=O)(O)c1cc(N=Nc2c(O)ccc3ccccc23)ccc1/C=C/c1ccc(N=Nc2c(O)ccc3ccccc23)cc1S(=O)(=O)O,> 50.1 µM,> 50.1 µM,–
CCOC(=O)C(CCCC(C(=O)OCC)C(=O)OCC)C(=O)OCC,> 200 µM,> 200 µM,–

SMILES,EC50,IC50,outcome
CCCCNc1ccc(/C=C2\C=Cc3ccccc32)cc1,> 10 µM,> 10 µM,–
C=C=C(C(=O)OC)S(=O)c1ccccc1[N+](=O)[O-] (stereo not given),–,–,inactive
Cc1c2ccccc2nc(CSCCC(C)C)[n+]1[O-],28.8 µM,135 µM,–
COCCN(CCOC)C1C2=C(CCCC2)OS(=O)(=O)C1c1ccccc1 (stereo not given),> 66.1 µM,> 66.1 µM,–
O=c1c(O)c(-c2ccc(O)cc2)oc2cc(O)cc(O)c12,> 97.7 µM,51.3 µM,–
COc1ccccc1NC(=S)/N=C/c1c(O)cc(C)oc1=O,> 200 µM,> 200 µM,–
Cc1n(-c2ccccc2)c2c([n+]1Cc1ccc([N+](=O)[O-])cc1)C(=O)c1ccccc1C2=O,> 70.8 µM,3.63 µM,–
CN(C)NC1=NS(=O)(=O)c2cc3c(=O)n(C)[nH]c3cc2S1,> 200 µM,138 µM,–
CSC[C@H](NC(=O)COc1cccc2cnccc12)C(=O)NC(Cc1ccccc1)C(O)C(=O)N1CSC[C@H]1C(=O)NC(C)(C)C (stereo not given in full),0.0513 µM,10 µM,–
COc1ccc(OC)c(/C=N/N=C(\N)NO)c1,> 603 µM,115 µM,–
O=C(O)c1cc(O)cc(O)c1N=Nc1ccc(/C=C/c2ccc(N=Nc3c(O)cc(O)cc3C(=O)O)cc2S(=O)(=O)O)c(S(=O)(=O)O)c1,0.813 µM,91.2 µM,–
NCCC1([N+](=O)[O-])C=CN=CC1 (stereo not given),–,–,inactive
CC1(C)Oc2ccc3ccccc3c2[C@@H](OC(=O)C23CCC(C)(C(=O)O2)C3(C)C)[C@H]1OC(=O)C12CCC(C)(C(=O)O1)C2(C)C (stereo not given in full),> 200 µM,3.55 µM,–
Cc1ccccc1-n1c(N)c(-c2nc3ccccc3[nH]2)sc1=S,> 4.27 µM,> 4.27 µM,–
CCOC(=O)C1=C(C)C(C(=O)OC)/C(=C/c2cccc3cccnc23)C1=O (stereo not given),> 200 µM,10.7 µM,–
O=C(O)c1ccc(S(=O)(=O)c2ccc(C(=O)O)c(C(=O)O)c2)cc1C(=O)O,> 200 µM,191 µM,–
NC1=Nc2ncccc2C(=O)NN1,> 200 µM,117 µM,–
[N-]=[N+]=NC1=C(N=[N+]=[N-])c2cccc3cccc(c23)C1=O,–,–,inactive
Brc1ccc(N=Nc2ccc3ccccc3n2)cc1,> 93.3 µM,91.2 µM,–
Cc1nc2c3c(ccc2[nH]c1=O)C(=O)c1ccccc1C3=O,–,–,inactive
NC(=O)c1ncn(CCCCCO)c1N,> 200 µM,> 200 µM,–

# Reference: PubChem BioAssay AID179 (DTP/NCI, 2004)
